Results from article PMC11062894, “Protein-based bandpass filters for controlling cellular signaling with chemical inputs” (Nature Chemical Biology, 2023).

Tested on: GEMS receptors with CBPA11 (BclXL–LD3 and BclXLhigh variants), STAT3-driven SEAP in HEK293T cells
Assay: GEMS SEAP reporter assay, CBPA11 (BclXLhigh, LD3-v and BclXL-v variants) with A-1155463
Format: cell-based
Set-up: key to Raw data (SEAP) / SEAP, replicate values / Raw data of Figure 5b / Raw data Figure 5e / Raw data of Independent repeat of CBPA11-v1 vs CBPA11-v1-LD3v3 / Raw data of Independent repeat of CBPA11-v3 vs CBPA11-v3-LD3v3 / Raw data of Figure 5b, CBPA11-v1-LD3v3 (SEAP reporter raw value, single replicate) / Raw data of Figure 5b, CBPA11-v1 (SEAP reporter raw value, single replicate): SEAP activity in U/L in culture supernatant
Conditions: SuppFigure 9c
Text: To rationally design a CBP responding to a chemical input, we used BclXL as the druglow receptor, LD3 as the designed binder and a designed BclXL variant as the drughigh receptor (referred to as BclXLhigh) to construct a CBP responsive to BclXL inhibitors (Fig. 4a). To design BclXLhigh, we used a multistate design computational protocol described elsewhere[26] […] Thus, BclXLhigh-v(1–3) were chosen as the functional drughigh receptors, resulting in three A-1155463-controlled CBPs (referred to as CBPA11-v(1–3)) (Fig. 4c–e).
HEK293T cells were seeded in a 96-well plate 24 h before transfection. The transfection mix in each well consisted of 3 ng of constitutive human CMV promoter driven mammalian STAT3 expression vector (PhCMV-STAT3-pA), 30 ng of STAT3-induced reporter expression (OStat3-PhCMVmin-SEAP-pA) and 50 ng of expression vectors for each GEMS receptor chain (PSV40-IgK-(drughigh receptor)-EpoRm-IL-6RBm-pA and PSV40-IgK-(druglow receptor-GGGGSX3-LD3)-EpoRm-IL-6RBm-pA). For the specific drughigh receptor and druglow receptor used in the different cellular assays, they are indicated as wild type or with mutations. Then, plasmid DNA was mixed with 50 μl opti-MEM (Thermo Fisher) and 600 ng of polyethyleneimine (Polysciences, catalog no. 24765-1). For drug treatment experiments, drugs were added 12 h post-transfection and incubated with cells for 24 h before the SEAP reporter detection assay.
SEAP activity (U l^−1) in cell culture supernatants was quantified by kinetic measurements at 405 nm (1 minute per measurement for 30 cycles) of absorbance increase due to phosphatase-mediated hydrolysis of para-nitrophenyl phosphate (pNPP).
Binding affinities of SPR drug competition assays were calculated using three-parameter nonlinear regression in GraphPad Prism (v.8.3.0). Representative data of cell assays are presented as individual values and mean values (bars). n = 3 refers to biological replicates. All IC50 or EC50 values of cell assays reported were calculated using four-parameter nonlinear regression ± s.d. Bandpass features of cutoff concentrations and Bandwidth90% were estimated based on the curve fitted using bell-shaped curve nonlinear regression in GraphPad Prism (v.8.3.0). […]
Supplementary Figure 4: Design, screening and validation of BclXLhigh variants. a) Screening of BclXLhigh variants in the GEMS platform. […]
Dissociation constant measurement of BclXLhigh-v(1-3) and LD3. Equilibrium curves are fitted using […]
BclXLhigh-v1 (purple), BclXLhigh-v2 (blue), […]
a) Bcl2high-based bandpass filter designs were developed and to respond to different concentrations of […]
corresponding inhibitor. c) Screening of Bcl2high-based bandpass filter variants in the GEMS platform.
The designed binder LD3 was fused to the druglow-receptor (PSV40-IgK-Bcl2-LD3-EpoRm-IL-6RBm-pA) in one EpoR chain and Bcl2high variants with the insensitive Bcl2 (iBcl2) as control in the other EpoR chain (PSV40-IgK-Bcl2high-EpoRm-IL-6RBm-pA). HEK293T cells were transfected with indicated […]
the mean of six biological replicates ± s.d., overlaid with a scatter dot plot of the original data points.
(1 picture or pasted object on this page, not shown here)
Supplementary Figure 6: Binding affinities and drug resistances of Bcl2high-v(2,4,5) assessed by […]
a) Measurement of dissociation constants for Bcl2high-v(2,4,5) and LD3 interactions. Equilibrium curves […]
Bcl2high-v(2,4,5) measured by SPR. 5 μM of Bcl2 or indicated variants were mixed with 10 μM of […]
Bcl2high-v2 (red), Bcl2high-v4
Supplementary Figure 7: Screening of LD3 variants in CBPA11-v(1-3) and raw data of CBPA11-v(1,3) with LD3-v3 variant. a-c) Screening of LD3 and LD3-v(1-3) variants in complex with BclXL for more sensitive CBPA11-v1 (a), CBPA11-v2 (b), CBPA11-v3 (c) in the GEMS platform. The LD3 variants replaced the role of LD3 (PSV40-IgK-BclXL-LD3-v(1-3)-EpoRm-IL-6RBm-pA) in one EpoR chain and BclXLhigh-v(1-3) in the other EpoR chain (PSV40-IgK-BclXLhigh-V(1-3)-EpoRm-IL-6RBm-pA). HEK293T cells were transfected with […]

With `CN(C)CC#Cc1ccc(OCCCc2sc(N3CCc4cccc(C(=O)Nc5nc6ccccc6s5)c4C3)nc2C(=O)O)c(F)c1` [A-1155463] the “Raw data (SEAP)” value (LD3, A-1155463 316 nM) was 61.2138, the “Normalized data (SEAP)” value (LD3, A-1155463 1000 nM) was 55.4364 and the “Raw data (SEAP)” value (LD3, A-1155463 1000 nM) was 44.3919. The “Normalized data (SEAP)” value (LD3, A-1155463 3160 nM) was 36.9566, the “Raw data (SEAP)” value (LD3, A-1155463 3160 nM) was 29.5938 and the “Normalized data (SEAP)” value (LD3, A-1155463 10000 nM) was 17.181. The “Raw data (SEAP)” value (LD3, A-1155463 10000 nM) was 13.758, the “Normalized data (SEAP)” value (LD3v1, A-1155463 1 nM) was 5.697 and the “Raw data (SEAP)” value (LD3v1, A-1155463 1 nM) was 3.397. The “Normalized data (SEAP)” value (LD3v1, A-1155463 3.16 nM) was 9.008, the “Raw data (SEAP)” value (LD3v1, A-1155463 3.16 nM) was 5.371 and the “Normalized data (SEAP)” value (LD3v1, A-1155463 10 nM) was 34.145. For the same molecule, the “Raw data (SEAP)” value (LD3v1, A-1155463 10 nM) was 20.3588, the “Normalized data (SEAP)” value (LD3v1, A-1155463 31.6 nM) was 55.6344 and the “Raw data (SEAP)” value (LD3v1, A-1155463 31.6 nM) was 33.1716. The “Normalized data (SEAP)” value (LD3v1, A-1155463 100 nM) was 100, the “Raw data (SEAP)” value (LD3v1, A-1155463 100 nM) was 59.6244 and the “Normalized data (SEAP)” value (LD3v1, A-1155463 316 nM) was 84.0823. For the same molecule, the “Raw data (SEAP)” value (LD3v1, A-1155463 316 nM) was 50.1335, the “Normalized data (SEAP)” value (LD3v1, A-1155463 1000 nM) was 65.4287 and the “Raw data (SEAP)” value (LD3v1, A-1155463 1000 nM) was 39.0114. The “Normalized data (SEAP)” value (LD3v1, A-1155463 3160 nM) was 35.6708, the “Raw data (SEAP)” value (LD3v1, A-1155463 3160 nM) was 21.2685 and the “Normalized data (SEAP)” value (LD3v1, A-1155463 10000 nM) was 16.487. The “Raw data (SEAP)” value (LD3v1, A-1155463 10000 nM) was 9.83, the “Normalized data (SEAP)” value (LD3v2, A-1155463 1 nM) was 18.0278 and the “Raw data (SEAP)” value (LD3v2, A-1155463 1 nM) was 19.4289. The “Normalized data (SEAP)” value (LD3v2, A-1155463 3.16 nM) was 13.8407, the “Raw data (SEAP)” value (LD3v2, A-1155463 3.16 nM) was 14.9163 and the “Normalized data (SEAP)” value (LD3v2, A-1155463 10 nM) was 72.4321. The “Raw data (SEAP)” value (LD3v2, A-1155463 10 nM) was 78.0614, the “Normalized data (SEAP)” value (LD3v2, A-1155463 31.6 nM) was 98.2639 and the “Raw data (SEAP)” value (LD3v2, A-1155463 31.6 nM) was 105.901. For the same molecule, the “Normalized data (SEAP)” value (LD3v2, A-1155463 100 nM) was 100, the “Raw data (SEAP)” value (LD3v2, A-1155463 100 nM) was 107.772 and the “Normalized data (SEAP)” value (LD3v2, A-1155463 316 nM) was 90.2158. For the same molecule, the “Raw data (SEAP)” value (LD3v2, A-1155463 316 nM) was 97.2273, the “Normalized data (SEAP)” value (LD3v2, A-1155463 1000 nM) was 79.3099 and the “Raw data (SEAP)” value (LD3v2, A-1155463 1000 nM) was 85.4738. The “Normalized data (SEAP)” value (LD3v2, A-1155463 3160 nM) was 45.5807, the “Raw data (SEAP)” value (LD3v2, A-1155463 3160 nM) was 49.1232 and the “Normalized data (SEAP)” value (LD3v2, A-1155463 10000 nM) was 26.3886. The “Raw data (SEAP)” value (LD3v2, A-1155463 10000 nM) was 28.4395, the “Normalized data (SEAP)” value (LD3v3, A-1155463 1 nM) was 53.0121 and the “Raw data (SEAP)” value (LD3v3, A-1155463 1 nM) was 3.893. The “Normalized data (SEAP)” value (LD3v3, A-1155463 3.16 nM) was 45.4436 and the “Raw data (SEAP)” value (LD3v3, A-1155463 3.16 nM) was 3.337.
